Experimental data reported in paper PMC4399811 (Bioorganic & medicinal chemistry letters, 2015).
Converted amounts (≈) assume the structure as drawn.

What was measured:
[1] = in vivo PK study in rats; conditions: rat
[2] = biological target: T1, mGlu3 (Homo sapiens, UniProt Q14832); conditions: NAM
[3] = test system: other mGlu receptors (mGlu1–4,6–8, except mGlu3); test: selectivity profiling against the other mGlu receptors; type: cell-based; conditions: read-out: other mGlu EC50; mGlu receptors other than mGlu5 and mGlu3
[4] = solubility in fasted simulated intestinal fluid; type: physicochemical; conditions: fasted simulated intestinal fluid (FaSSIF), pH 7.2, fassif
[5] = test system: rats; test: adverse effects in rats; type: in vivo, rat
[6] = test system: dogs; test: adverse effects in in vivo PK studies in dogs; parameters: species or system dog; conditions: 0.5 mg/mL i.v.
[7] = test system: amphetamine-induced hyperlocomotion; test: reversal of amphetamine-induced hyperlocomotion; conditions: rat
[8] = biological target: T1, mGlu3; test: cell-based
[9] = biological target: rat mGlu5 receptors (Rattus norvegicus, UniProt P31424); test: 'triple add' calcium mobilization assay, mGlu5 PAM/NAM/agonist modes; type: cell-based; conditions: for fold increase in mGlu5 potency vs series 3 counterpart: dihydro analogue 4 vs corresponding analogue 3
[10] = biological target: T2, CYP1A2 (Homo sapiens, UniProt P05177); test: CYP inhibition cocktail assay using HLM and known substrates
T2 sequence (P05177 1-516): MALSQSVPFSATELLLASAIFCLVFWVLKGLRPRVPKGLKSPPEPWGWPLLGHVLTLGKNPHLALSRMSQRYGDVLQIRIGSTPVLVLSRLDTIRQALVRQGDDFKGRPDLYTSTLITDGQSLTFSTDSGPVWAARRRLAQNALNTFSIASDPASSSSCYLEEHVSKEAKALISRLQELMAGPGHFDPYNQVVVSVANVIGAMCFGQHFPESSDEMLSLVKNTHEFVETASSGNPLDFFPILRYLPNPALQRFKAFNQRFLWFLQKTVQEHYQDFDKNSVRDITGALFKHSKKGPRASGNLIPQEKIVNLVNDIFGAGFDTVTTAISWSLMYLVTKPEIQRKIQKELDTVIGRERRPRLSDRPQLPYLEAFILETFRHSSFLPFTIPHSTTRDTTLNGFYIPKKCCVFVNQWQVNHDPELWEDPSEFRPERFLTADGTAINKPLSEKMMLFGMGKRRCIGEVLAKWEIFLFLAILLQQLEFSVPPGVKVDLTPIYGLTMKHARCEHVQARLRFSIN

[11] = biological target: CYP2C9 (Homo sapiens, UniProt P11712); test: as above
[12] = biological target: CYP2D6 (Homo sapiens, UniProt P10635); test: as above
[13] = biological target: CYP3A4 (Homo sapiens, UniProt P08684); test: as above
CYP3A4, sequence (P08684 whole entry): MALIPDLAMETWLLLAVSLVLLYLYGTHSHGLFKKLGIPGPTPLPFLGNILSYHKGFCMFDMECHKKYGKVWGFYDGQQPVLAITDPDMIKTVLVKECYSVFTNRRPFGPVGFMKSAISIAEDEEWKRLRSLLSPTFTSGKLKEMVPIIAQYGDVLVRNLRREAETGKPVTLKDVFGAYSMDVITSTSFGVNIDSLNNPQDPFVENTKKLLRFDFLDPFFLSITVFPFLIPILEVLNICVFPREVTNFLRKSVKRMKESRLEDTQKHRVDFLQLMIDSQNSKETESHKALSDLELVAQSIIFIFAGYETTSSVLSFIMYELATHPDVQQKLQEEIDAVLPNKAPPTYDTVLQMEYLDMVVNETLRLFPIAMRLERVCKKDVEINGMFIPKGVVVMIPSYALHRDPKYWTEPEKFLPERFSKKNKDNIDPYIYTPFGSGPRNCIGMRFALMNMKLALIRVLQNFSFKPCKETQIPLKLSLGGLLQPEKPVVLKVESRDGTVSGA

rat mGlu5 receptors, sequence (P31424 21-1203): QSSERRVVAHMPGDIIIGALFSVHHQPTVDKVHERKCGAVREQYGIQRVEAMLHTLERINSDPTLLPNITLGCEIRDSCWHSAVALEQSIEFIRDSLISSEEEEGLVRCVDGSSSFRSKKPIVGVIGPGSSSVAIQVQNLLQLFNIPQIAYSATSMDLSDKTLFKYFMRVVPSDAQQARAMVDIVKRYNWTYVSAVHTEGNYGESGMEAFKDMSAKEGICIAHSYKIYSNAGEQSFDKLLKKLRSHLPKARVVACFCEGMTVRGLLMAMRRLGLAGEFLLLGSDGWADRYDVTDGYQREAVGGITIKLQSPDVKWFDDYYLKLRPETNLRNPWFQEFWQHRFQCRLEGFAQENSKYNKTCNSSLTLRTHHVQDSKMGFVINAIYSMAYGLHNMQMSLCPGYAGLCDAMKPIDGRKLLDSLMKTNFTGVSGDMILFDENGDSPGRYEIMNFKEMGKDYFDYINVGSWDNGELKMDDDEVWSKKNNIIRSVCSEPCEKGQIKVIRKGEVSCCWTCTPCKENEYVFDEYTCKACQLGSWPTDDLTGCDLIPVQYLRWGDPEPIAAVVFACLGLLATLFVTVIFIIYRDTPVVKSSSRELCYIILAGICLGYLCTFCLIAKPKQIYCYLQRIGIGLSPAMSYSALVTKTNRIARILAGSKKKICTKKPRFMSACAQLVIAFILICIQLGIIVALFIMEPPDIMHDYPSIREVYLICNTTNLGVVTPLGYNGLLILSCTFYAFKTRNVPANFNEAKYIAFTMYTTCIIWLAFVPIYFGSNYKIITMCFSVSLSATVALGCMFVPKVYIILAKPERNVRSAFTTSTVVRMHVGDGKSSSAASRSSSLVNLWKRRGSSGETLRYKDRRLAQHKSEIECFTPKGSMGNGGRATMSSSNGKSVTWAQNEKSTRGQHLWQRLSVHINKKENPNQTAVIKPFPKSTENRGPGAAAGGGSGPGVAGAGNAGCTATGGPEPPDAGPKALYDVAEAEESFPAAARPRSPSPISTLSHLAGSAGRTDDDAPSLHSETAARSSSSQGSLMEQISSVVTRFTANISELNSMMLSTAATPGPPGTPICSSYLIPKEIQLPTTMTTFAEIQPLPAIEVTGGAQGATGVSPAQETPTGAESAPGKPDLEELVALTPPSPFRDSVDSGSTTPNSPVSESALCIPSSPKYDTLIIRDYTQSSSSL
T1 sequence (Q14832 23-879): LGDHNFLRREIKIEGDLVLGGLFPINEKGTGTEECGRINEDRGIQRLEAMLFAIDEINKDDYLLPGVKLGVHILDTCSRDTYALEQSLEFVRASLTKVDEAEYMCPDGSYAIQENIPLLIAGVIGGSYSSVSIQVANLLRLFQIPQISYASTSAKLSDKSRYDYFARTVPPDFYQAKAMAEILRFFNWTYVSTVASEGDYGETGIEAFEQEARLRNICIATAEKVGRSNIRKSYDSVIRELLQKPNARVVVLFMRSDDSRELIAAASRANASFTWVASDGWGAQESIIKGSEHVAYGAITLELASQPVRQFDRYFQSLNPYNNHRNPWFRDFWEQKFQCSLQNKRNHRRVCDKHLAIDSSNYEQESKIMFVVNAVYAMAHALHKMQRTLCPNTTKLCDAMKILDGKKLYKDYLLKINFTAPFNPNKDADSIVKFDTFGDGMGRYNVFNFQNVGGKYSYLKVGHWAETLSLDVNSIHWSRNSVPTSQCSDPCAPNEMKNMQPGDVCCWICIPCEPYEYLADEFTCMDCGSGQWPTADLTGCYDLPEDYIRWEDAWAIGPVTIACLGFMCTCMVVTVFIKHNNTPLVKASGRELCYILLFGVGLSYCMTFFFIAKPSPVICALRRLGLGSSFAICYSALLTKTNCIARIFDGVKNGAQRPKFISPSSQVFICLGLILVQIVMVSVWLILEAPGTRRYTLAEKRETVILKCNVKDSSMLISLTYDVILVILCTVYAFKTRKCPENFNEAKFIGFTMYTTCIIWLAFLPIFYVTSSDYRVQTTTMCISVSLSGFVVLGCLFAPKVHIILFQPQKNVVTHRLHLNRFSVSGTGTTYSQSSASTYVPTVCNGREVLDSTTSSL
CYP2D6, sequence (P10635 whole entry): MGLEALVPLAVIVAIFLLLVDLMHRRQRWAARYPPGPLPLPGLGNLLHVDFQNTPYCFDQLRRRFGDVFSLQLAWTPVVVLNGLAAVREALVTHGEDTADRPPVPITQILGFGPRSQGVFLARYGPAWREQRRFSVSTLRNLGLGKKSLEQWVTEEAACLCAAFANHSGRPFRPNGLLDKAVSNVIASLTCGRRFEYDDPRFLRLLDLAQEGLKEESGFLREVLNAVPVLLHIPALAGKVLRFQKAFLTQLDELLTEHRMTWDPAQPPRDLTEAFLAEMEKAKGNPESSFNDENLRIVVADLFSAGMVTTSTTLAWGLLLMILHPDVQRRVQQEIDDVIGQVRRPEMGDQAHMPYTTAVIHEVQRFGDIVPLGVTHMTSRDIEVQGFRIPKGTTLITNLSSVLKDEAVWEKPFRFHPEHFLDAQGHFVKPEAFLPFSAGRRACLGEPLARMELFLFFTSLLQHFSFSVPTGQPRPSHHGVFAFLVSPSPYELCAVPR
CYP2C9, sequence (P11712 whole entry): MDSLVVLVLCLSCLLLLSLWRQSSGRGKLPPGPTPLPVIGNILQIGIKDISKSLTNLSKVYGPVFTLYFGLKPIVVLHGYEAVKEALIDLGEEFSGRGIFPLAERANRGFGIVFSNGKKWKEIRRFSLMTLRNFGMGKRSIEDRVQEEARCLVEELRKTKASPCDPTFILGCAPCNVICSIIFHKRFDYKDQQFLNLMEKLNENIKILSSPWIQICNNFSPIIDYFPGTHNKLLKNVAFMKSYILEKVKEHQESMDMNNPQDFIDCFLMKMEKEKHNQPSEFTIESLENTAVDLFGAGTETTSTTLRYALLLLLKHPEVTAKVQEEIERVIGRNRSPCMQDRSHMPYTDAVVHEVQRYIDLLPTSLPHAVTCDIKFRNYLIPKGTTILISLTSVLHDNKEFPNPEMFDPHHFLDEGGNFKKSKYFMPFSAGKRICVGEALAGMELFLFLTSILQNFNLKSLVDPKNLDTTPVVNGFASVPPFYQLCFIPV

O=C1N(c2ccc(F)cc2)CCc2nc(COc3ccccc3)cn21 [4a]
clearance ([1]; in vivo, 1 mg/kg): 23.3 mL/min/kg | brain AUC ([1]; 0.5-7.0 h): 12.7 µM-h | mGlu3 % Glu Max [2]: 3% | EC50 [3]: > 10 µM | solubility [4]: 6 µg/mL (≈ 17.8 µM) | CNS-mediated side effects, modified Irwin neurological test battery ([5]; 120 mg/kg): pro-convulsive behavior | adverse effects in PK and pharmacological experiments ([5]; up to 100 mg/kg p.o.): no significant adverse effects | CNS-mediated side effects in PK studies [6]: dizziness | lowest active oral dose, reversal of AIH [7]: 3 mg/kg | EC50 [8]: 0.29 µM | mGlu5 agonistic activity ([9]; up to the highest concentration tested of 30 µM): lack of mGlu5 agonistic activity

O=C1N(c2ccc(F)cc2)CCc2nc(COc3ccc(F)cc3)cn21 [4i]
fold increase in mGlu5 potency vs series 3 counterpart [9]: ≤ 3.3 fold

O=c1n(-c2ccc(F)cc2)ccc2nc(COc3ccccc3)cn12 [3e]
EC50 [3]: > 10 µM | IC50 [10]: 9.3 µM | IC50 [11]: > 20 µM | IC50 [12]: > 20 µM | EC50 [8]: 0.63 µM | IC50 [13]: > 20 µM

O=C1N(c2cccc(F)c2)CCc2nc(COc3ccccc3)cn21 [4b]
fold increase in mGlu5 potency vs series 3 counterpart [9]: 1.8–2.4 fold

O=C1N(c2ccc(F)cc2)CCc2nc(COc3cccc(F)c3)cn21 [4h]
fold increase in mGlu5 potency vs series 3 counterpart [9]: ≤ 3.3 fold

Cc1cc(N2CCc3nc(COc4ccccc4)cn3C2=O)ccc1F [4c]
fold increase in mGlu5 potency vs series 3 counterpart [9]: 1.8–2.4 fold
